Entries after “also recorded” stand apart in the source; their conditions may differ.
What was measured:
EPAC2 [1] = molecular target: T1, EPAC2 (Mus musculus, UniProt Q9EQZ6); test: cAMP-mediated EPAC2 GEF activity; format: biochemical; settings: 25 µM compound in the presence of 25 µM cAMP
T1 sequence (Q9EQZ6 1-1011): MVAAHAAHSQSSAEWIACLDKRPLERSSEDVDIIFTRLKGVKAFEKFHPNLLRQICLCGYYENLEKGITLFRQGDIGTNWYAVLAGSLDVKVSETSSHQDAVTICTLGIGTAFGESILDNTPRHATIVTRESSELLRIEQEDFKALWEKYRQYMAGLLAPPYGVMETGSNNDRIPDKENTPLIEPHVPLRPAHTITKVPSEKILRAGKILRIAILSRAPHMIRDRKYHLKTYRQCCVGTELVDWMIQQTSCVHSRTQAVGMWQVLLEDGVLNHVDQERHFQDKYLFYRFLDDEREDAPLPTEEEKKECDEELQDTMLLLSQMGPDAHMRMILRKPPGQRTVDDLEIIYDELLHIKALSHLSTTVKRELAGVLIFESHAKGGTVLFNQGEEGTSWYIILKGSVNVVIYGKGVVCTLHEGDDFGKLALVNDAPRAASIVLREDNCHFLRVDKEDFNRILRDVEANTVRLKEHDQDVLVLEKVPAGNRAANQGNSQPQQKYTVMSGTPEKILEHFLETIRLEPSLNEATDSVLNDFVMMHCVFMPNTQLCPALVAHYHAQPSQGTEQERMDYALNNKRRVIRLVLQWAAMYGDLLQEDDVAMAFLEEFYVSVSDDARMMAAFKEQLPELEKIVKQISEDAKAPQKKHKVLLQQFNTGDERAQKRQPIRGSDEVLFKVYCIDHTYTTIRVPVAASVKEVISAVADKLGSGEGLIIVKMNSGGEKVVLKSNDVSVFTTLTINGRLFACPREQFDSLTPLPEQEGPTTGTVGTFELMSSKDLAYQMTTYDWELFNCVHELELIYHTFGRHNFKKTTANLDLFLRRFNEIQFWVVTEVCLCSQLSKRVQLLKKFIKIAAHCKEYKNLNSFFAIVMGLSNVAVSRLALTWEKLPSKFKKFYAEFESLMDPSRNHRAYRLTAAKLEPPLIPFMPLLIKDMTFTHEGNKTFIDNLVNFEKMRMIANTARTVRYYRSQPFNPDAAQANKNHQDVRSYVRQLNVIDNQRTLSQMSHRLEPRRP

EPAC1 [2] = molecular target: T2, EPAC1 (Homo sapiens, UniProt O95398); test: cAMP-mediated EPAC1 GEF activity; format: biochemical; settings: 25 µM compound in the presence of 25 µM cAMP
T2 sequence (O95398 1-923): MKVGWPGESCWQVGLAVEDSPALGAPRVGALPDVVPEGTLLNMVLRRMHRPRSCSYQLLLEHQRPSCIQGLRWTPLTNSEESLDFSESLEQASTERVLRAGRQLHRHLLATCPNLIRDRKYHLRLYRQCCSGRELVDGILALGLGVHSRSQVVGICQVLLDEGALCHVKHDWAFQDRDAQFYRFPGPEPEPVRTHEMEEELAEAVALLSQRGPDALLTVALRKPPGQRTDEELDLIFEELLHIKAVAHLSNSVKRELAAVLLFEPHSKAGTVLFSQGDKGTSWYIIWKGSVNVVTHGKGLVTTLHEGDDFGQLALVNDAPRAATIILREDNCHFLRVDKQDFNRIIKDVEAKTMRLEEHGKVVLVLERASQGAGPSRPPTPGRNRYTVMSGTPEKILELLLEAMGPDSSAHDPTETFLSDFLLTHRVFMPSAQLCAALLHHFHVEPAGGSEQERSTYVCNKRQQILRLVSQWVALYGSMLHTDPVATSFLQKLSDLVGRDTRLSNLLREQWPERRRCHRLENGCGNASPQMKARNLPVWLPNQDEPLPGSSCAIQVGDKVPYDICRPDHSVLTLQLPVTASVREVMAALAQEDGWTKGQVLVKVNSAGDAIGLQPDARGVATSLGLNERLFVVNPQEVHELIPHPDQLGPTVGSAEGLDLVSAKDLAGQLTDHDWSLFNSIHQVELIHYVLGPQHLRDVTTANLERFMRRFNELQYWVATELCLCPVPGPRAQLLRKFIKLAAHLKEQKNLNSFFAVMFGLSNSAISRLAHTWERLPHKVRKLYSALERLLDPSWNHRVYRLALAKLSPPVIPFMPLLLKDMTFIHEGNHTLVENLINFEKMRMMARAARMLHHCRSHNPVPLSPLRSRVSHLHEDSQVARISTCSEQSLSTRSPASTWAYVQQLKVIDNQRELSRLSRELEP

type I PKA holoenzyme = test: Counter screening assay, type I PKA holoenzyme kinase activity; format: biochemical; settings: 25 µM compound, 0.1 mM cAMP
type II PKA holoenzyme = test: Counter screening assay, type II PKA holoenzyme kinase activity; format: biochemical; settings: 25 µM compound, 0.1 mM cAMP
EPAC1 [3] = molecular target: T2, EPAC1; settings: cAMP-mediated EPAC1 GEF activity; ref 18b; cited from earlier work
EPAC2 [4] = molecular target: T1, EPAC2; test: 8-NBD-cAMP competition binding assay; settings: for Relative Potency (RA): RA = IC50, cAMP/ IC50, compound
HEK293/EPAC1-FL = molecular target: T3, HEK293/EPAC1-FL (Homo sapiens, UniProt O95398); test: FRET-based live-cell assay for EPAC1 activation; settings: 10 µM 20i, 10 µM 007-AM
T3 sequence (O95398 1-923): T2 sequence (O95398 1-923)

[5] = system: HEK293 cells stably expressing the PKA sensor AKAR3; test: FRET-based live-cell assay for PKA; settings: 10 µM 20i, 10 µM 8-Br-cAMP-AM
HEK293/EPAC2-FL cells = HEK293/EPAC2-FL cells (Homo sapiens, UniProt Q8WZA2); test: FRET-based live-cell assay for EPAC2 activation; settings: 10 µM 20i pretreatment, 10 µM 007-AM
Sequence of HEK293/EPAC2-FL cells (Q8WZA2 whole entry): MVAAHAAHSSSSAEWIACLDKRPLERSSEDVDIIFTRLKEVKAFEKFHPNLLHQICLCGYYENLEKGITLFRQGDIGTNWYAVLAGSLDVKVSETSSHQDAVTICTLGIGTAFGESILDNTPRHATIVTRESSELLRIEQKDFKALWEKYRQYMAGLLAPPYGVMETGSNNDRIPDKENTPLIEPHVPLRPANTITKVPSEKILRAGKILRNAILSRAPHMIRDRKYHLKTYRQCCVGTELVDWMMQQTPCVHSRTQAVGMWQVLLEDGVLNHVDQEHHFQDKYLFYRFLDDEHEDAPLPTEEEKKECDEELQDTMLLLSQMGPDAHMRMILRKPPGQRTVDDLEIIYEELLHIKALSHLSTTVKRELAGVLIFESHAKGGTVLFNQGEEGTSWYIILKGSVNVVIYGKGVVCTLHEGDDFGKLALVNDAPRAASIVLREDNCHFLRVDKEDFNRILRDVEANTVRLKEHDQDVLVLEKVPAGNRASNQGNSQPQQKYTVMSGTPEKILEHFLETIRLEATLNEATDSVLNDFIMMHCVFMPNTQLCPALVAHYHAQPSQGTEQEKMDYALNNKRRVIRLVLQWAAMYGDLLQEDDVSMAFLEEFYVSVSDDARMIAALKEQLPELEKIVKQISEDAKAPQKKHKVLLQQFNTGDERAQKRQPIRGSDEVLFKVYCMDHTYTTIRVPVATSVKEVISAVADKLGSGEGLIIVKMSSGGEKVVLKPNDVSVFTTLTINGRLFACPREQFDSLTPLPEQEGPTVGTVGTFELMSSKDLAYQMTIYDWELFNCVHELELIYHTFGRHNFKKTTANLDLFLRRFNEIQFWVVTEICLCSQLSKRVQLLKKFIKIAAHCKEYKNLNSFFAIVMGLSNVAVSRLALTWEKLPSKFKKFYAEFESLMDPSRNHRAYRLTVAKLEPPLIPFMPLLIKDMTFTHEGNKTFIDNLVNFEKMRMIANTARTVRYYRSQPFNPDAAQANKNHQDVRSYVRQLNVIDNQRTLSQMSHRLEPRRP

SMILES | Inhibition of EPAC2 GEF activity (EPAC2 [1]) | Inhibition of EPAC1-mediated Rap1-GDP exchange activity (EPAC1 [2]) | Effect on cAMP-induced type I PKA holoenzyme activation (type I PKA holoenzyme) | Effect on cAMP-induced type II PKA holoenzyme activation (type II PKA holoenzyme) | Selectivity EPAC2 vs EPAC1 of HTS hits (EPAC1 [3]) | Relative Potency (RA) (EPAC2 [4]) | fold more potent than cAMP (EPAC2 [4]; 8-NBD-cAMP competition in binding EPAC2) | Block of 007-AM induced decrease of FRET (EPAC1 activation) (HEK293/EPAC1-FL) | Inhibition of 8-Br-cAMP-AM induced PKA activation (AKAR3 FRET) [5] | Block of 007-AM induced decrease of FRET (EPAC2 activation) (HEK293/EPAC2-FL cells)
Cc1ccc(S(=O)(=O)c2c(C)cc(C)cc2C)cc1 [Compound 1] | inhibit EPAC2 GEF activity to basal levels | no inhibition; also recorded: not to inhibit | not to significantly alter | not to significantly alter | – | – | – | – | – | –
Nc1ccc(Nc2ccc(N)cc2S(=O)(=O)O)cc1 [Compound 2] | – | – | – | – | not exclusively specific for EPAC2 | 2.2 | – | – | – | –
Cc1cc(C)c(Nc2cc(Cl)ccc2Cl)c(C)c1 [Compound 14c, (2,5-Dichlorophenyl)-(2,4,6-trimethylphenyl)amine] | inhibit EPAC2 GEF activity to basal levels | no inhibition; also recorded: not to inhibit | not to significantly alter | not to significantly alter | – | 100 | about 100 fold | – | – | –
Cc1cc(C)c(S(=O)(=O)n2cc(C)cc2C)c(C)c1 [Compound 20i, 2,4-Dimethyl-1-(2,4,6-trimethylbenzenesulfonyl)-1H-pyrrole] | inhibit EPAC2 GEF activity to basal levels | no inhibition; also recorded: not to inhibit | not to significantly alter | not to significantly alter | – | – | – | incapable of blocking; also recorded: not EPAC1 activation | not inhibited; also recorded: did not affect PKA activation | fully blocked; also recorded: blocked EPAC2

Reference: publication PMC3574212 (Journal of medicinal chemistry, 2013)
